Laboratory results taken from PMC10988555, “Exploiting Co(III)-Cyclopentadienyl Complexes To Develop Anticancer Agents” (Inorganic Chemistry, 2024).

Tests used:
A2780 cells = assay: Cell cycle progression (PI flow cytometry, double thymidine block); format: cell-based, human; settings: A2780, 24 h; complexes at IC50, DOX 0.4 μM, cisplatin 5 μM
Description: The interference of the copper complexes 2–4 in the cell cycle progression was evaluated in A2780 cells, seeded in 6-weel plates, with a density of 2 × 10^5 cells/well, and incubated for 8 h at the same conditions as described above. After that incubation time, the cells were synchronized in early S-phase with a 2 mM thymidine solution (Sigma, St. Louis, USA) for a 16 h period. Media with thymidine was replaced by fresh media and, after 8 h, another 2 mM thymidine solution was added to the wells (double thymidine block) and incubated for 16 h. […] Cells were incubated for 9, 18, or 24 h, and, at each hour, the cells were treated with TE and centrifuges at 650 × g for 5 min at 4 °C. The pellet was resuspended in PBS 1× and centrifuged at 3000 × g for 5 min at 4 °C. Later, the pellet was resuspended in 100 μL of PBS 1×, and 1 mL of a solution of 80% (v/v) ethanol was gently added to the cells. Cells were stored at 4 °C for at least 12 h and then centrifuged for 10 min at 7500 × g at 4 °C, treated with 250 μL of 50 μg/mL RNase A, and incubated for 30 min at 37 °C. After incubation, 100 μL of PI (25 μg/mL) was added to the cells as well as 650 μL of PBS 1×. The DNA content was evaluated on an Attune Acoustic Focusing Flow Cytometer (ThermoFisher Scientific) and results were analyzed by the respective software.

DNA of A2780 cells = assay: Single-cell gel electrophoresis (comet assay); format: cell-based, human; settings: for fold increase in DNA in the tail compared to DMSO control: A2780, 10× IC50, 12 h; for % of DNA in the tail: A2780, complexes 10× IC50 for 12 h, H2O2 0.05% for 30 min at RT
Description: A2780 cells were seeded in 6-well plates with a density of 1 × 10^6 cells/well and incubated for 24 h in an incubator with a humidified atmosphere at 5% (v/v) CO2 and 37 °C. […] The complexes and DMSO were incubated at 37 °C for 12 h and H2O2 for 30 min at RT. Cells were harvested with a cell scraper and solutions with 1 × 10^5 cells/mL in PBS were prepared. It was withdrawn 10 μL from the solutions and added to 90 μL of 1.5% (w/v) low melting point agarose in 1× PBS and dropped on the slides prepared previously with a coating of 1.5% (w/v) agarose (normal melting point agarose) in 1× TAE buffer. After drying at 4 °C for 15 min, the slides were dipped into lysis solution (450 mM NaCl, 3.72% EDTA, 5 mM Tris; to which 10% (v/v) DMSO and 1% (v/v) Triton-X were added just before use) for 1 h at 4 °C, followed by their being dipped for 40 min into cold electrophoresis solution (1 mM EDTA, 300 mM NaOH, pH 13). Electrophoresis was performed at 4 °C for 30 min at 25 V using a Sub-Cell model 96 apparatus (Bio-Rad). Afterward, slides were placed in 0.1 M Tris–HCl buffer (pH 7.5) at 4 °C for 15 min for neutralization, followed by 15 min in methanol at 4 °C and drying at 37 °C. For visualization of comets, slides were hydrated with distilled water at 4 °C for 30 min, stained with 20 μL of GelRed working solution (3×), and covered with new coverslips. The slides were observed under a Ti–U Eclipse inverted microscope (Nikon Instruments, Japan) and analyzed by CometScore version 2.1 (TriTek). About 100 cells per sample were analyzed. The percentage of DNA in the tail was used as a measure of the total DNA strand breakage.

[1] = tested on: A2780 (human ovarian carcinoma) cell line; assay: Antiproliferative activity, MTS assay, A2780; format: cell-based; settings: for IC50: 48 h exposure, MTS assay; for Selectivity index (SI), A2780: IC50 fibroblasts/IC50 A2780, values with * calculated taking fibroblast IC50 as 100 μM (minimal value)
Description: Human colorectal carcinoma cell line (HCT116), human breast cancer cell lines (MDA-MB-231 and MCF-7), and normal human primary dermal fibroblasts neonatal (PCS-201-010) cell line were grown in DMEM (Dulbecco’s modified Eagle’s medium) (Invitrogen Corp., Grand Island, NY, USA) supplemented with 10% (v/v) fetal bovine serum and 1% (v/v) antibiotic/antimycotic solution (Invitrogen Corp.). The human ovarian carcinoma (A2780) cell line was cultivated using RPMI (Roswell Park Memorial Institute) medium supplemented as in DMEM medium. The supplemented medium is named a complete medium. Cells were grown in an incubator with a humidified atmosphere at 5% (v/v) CO2 and 37 °C. All cell lines were purchased from ATCC (ATCC, American Type Culture Collection).
The evaluation of the cytotoxic potential of complexes 1–4 was obtained through in vitro measurements of the antiproliferative activity of these complexes. Cells were plated in 96-well plates at 7.5 × 10^4 cells/mL and incubated at 37 °C with 5% (v/v) CO2. After 24 h, the culture medium was replaced with fresh medium (100 μL) containing 0.1–50 μM of the different complexes and incubated for 48 h in tumor cell lines or containing 0.1–100 μM of the different complexes and incubated for 48 h in fibroblasts. […] The fibroblast cell line was used as a control of the cytotoxicity of the complexes for healthy cells. Cell viability was evaluated using Cell Titer 96 Aqueous Non-Radioactive Cell Proliferation Assay (Promega, Madison, WI, USA) using 3-(4,5-dimethylthiazol-2-yl)-5-(3-carboxymethoxyphenyl)-2-(4-sulfophenyl)-2H-tetrazolium inner salt (MTS), as described previously.[60] In metabolically active cells, enzymes present in the mitochondria catalyze a reaction in which NADPH/NADH is produced. These enzymes reduce the MTS reagent into a brownish product, Formazan, which can be quantified by measuring the absorbance at 490 nm. The quantity of formazan produced is directly proportional to the number of viable cells in the culture. This quantification was executed with a Biorad microplate reader Model 680 (Bio-Rad, Hercules, CA, USA). Half maximal inhibitory concentration (IC50) was calculated using GraphPad Prism 6 (GraphPadSoftware). We have calculated the ratio between the IC50 of fibroblasts and the IC50 of HCT116, A2780, MDA-MB-231, or MCF-7 cell lines for complexes 1–4 that was named herein as the Selectivity index (SI). To ensure the solubility of the complexes in all biological assays, complex solutions were freshly prepared and well solubilized before addition to the cells.

| SMILES | % of cells in the G2/M phase (A2780 cells) [%] | fold increase in DNA in the tail compared to DMSO control (DNA of A2780 cells) [fold] | % of DNA in the tail (DNA of A2780 cells) [%] | IC50 [1] [µM] | Selectivity index (SI), A2780 [1] |
| --- | --- | --- | --- | --- | --- |
| Cc1ccnc(-c2cc(C)ccn2)c1.O=S(=O)([O-])C(F)(F)F.O=S(=O)([O-])C(F)(F)F.[Co+3].c1cc[cH-]c1.c1ccc(P(c2ccccc2)c2ccccc2)cc1 [Complex 2, [Co(η^5-C5H5)(PPh3)(Me2bipy)][(CF3SO3)2]] | 34.1 | 3.1 | 39.7 | 6.1 ± 0.1 | 16.4* |
| O=S(=O)([O-])C(F)(F)F.O=S(=O)([O-])C(F)(F)F.[Co+3].c1cc[cH-]c1.c1ccc(P(c2ccccc2)c2ccccc2)cc1.c1cnc2c(c1)ccc1cccnc12 [Complex 3, [Co(η^5-C5H5)(PPh3)(phen)][(CF3SO3)2]] | 20.7 | 3.2 | 42.4 | 6.2 ± 0.1 | 16.1* |
| Nc1cc2cccnc2c2ncccc12.O=S(=O)([O-])C(F)(F)F.O=S(=O)([O-])C(F)(F)F.[Co+3].c1cc[cH-]c1.c1ccc(P(c2ccccc2)c2ccccc2)cc1 [Complex 4, [CoCp(PPh3)(NH2phen)][(CF3SO3)2]] | 28 | 4.4 | 56.4 | 4.7 ± 0.09 | 21.3* |
